One assay addresses Avi-tagged FL MALT-1 (Homo sapiens (Human), UniProt Q9UDY8). Briefly: MALT-1 Fluorogenic Peptide Cleavage Assay (MALT1 inhibition assay). Format: biochemical. As to conditions: Ac-LRSR-AMC peptide substrate, 30 min pre-incubation, 90 min reaction at room temperature. On the procedure:
Inhibition of MALT1 activity by the presence of small molecules was evaluated using MALT-1 Fluorogenic Peptide Cleavage Assay. The assay utilizes a quenched AMC-labelled peptide that contains the MALT-1 recognition sequence and cleavage site (LRSR). MALT-1 mediated cleavage of the peptide relieves the quenching and leads to an increase in fluorescence at excitation (342 nm) and emission (441 nm).
The following reagents were obtained commercially and used to prepare standard reagent formulations as further described below: N-2-hydroxyethylpiperazine-N-2-ethane sulfonic acid (HEPES) (1 M, pH 7.5, stored at 4° C.), sodium citrate (stored at RT), tris(2-carboxyethyl) phosphine hydrochloride (T-CEP) (500 mM, stored at −20° C.), ethylenediaminetetraacetic acid (EDTA) (500 mM, stored at RT), dimethylsulfoxide (DMSO, stored at RT), 3-[(3-cholamido-propyl)dimethylammonio]-1-propane sulphate (CHAPS) (stored at RT), dimethylsulfoxide (DMSO), DMSO (Fisher Scientific, stored at RT), Avi-tagged FL MALT-1 (Pharmaron, stored at −70° C.), Ac-LRSR-AMC Peptide (SM Biochemicals, stored at −20° C.)., and ultrapure water (MILLLI-Q©).
The standard reagent formulations used in this assay were prepared and stored as follows. A 1.1 M solution of sodium citrate (161.3 g, 500 mL) was prepared and stored at room temperature. A 10% (w/v) CHAPS solution (2.0 g, 20 mL) was prepared and stored at 4° C. A 500 mM HEPES solution having pH of 6.89 was prepared from 200 mL of a 1 M HEPES solution having a pH of 7.5 using concentrated hydrochloric acid and brought to a final volume of 400 mL with MILLI-Q© H2O. The substrate, 10 mM Ac-LRSR-AMC Peptide, was prepared (10 mg, 1.370 mL DMSO) and stored at −20° C.
Compounds were plated to provide a 2% DMSO final concentration using a ProxiPlate-384 Plus F Black 384-shallow well microplate. The assay-ready plates were equilibrated to room temperature. A reaction buffer (30 mL total volume) was prepared by combining HEPES (pH 6.89, 25 mM, 1.5 mL), sodium citrate (660 mM, 18.0 mL), T-CEP (1 mM, 0.06 mL), EDTA ([…], 0.06 mL), CHAPS (0.05%, 0.15 mL), DMSO (2%, 0.6 mL), and MILLI-Q© H2O (10.23 mL; 9.63 mL when backfilled to 2% DMSO) followed by thorough mixing. DMSO was added only when compound plates had not been DMSO-backfilled to 2%.
MALT-1 was thawed and kept on ice. Peptide substrate was thawed on the bench under ambient conditions. A MALT-1 enzyme working stock was prepared from Avi-tagged FL MALT-1 (40 nM in a prepared reagent volume of 16.5 μL) and the reaction buffer (13.0 mL). MALT1 working stock (5 μL) was added to each well of the microplate. MALT-1 was pre-incubated with compounds for 30 minutes at room temperature.
Two substrate working stocks (Km and 10×Km) were prepared. The 1×Km substrate was prepared from Ac-LRSR-AMC Peptide (50 μM in a prepared reagent volume of 35.0 μL) and the reaction buffer (6.965 mL). The 10×Km substrate was prepared from Ac-LRSR-AMC Peptide (280 μM in a prepared reagent volume of 196.0 μL) and the reaction buffer (6.804 mL). The reaction was initiated by the addition of substrate working stock (5 μL, 50 μM) to Km plates and the addition of substrate working stock (5 μL 280 μM) to 10×Km plates. The plates were covered and incubated on the bench at room temperature for 90 minutes.
Fluorescence intensity was determined using a CLARIOstar microplate reader (BMG LABTECH) using the optimised AMC mode. Before taking readings, a 70% gain was applied on the neutral control well. Compound data were normalised to % Inhibition and used to plot sigmoidal concentration response curves to yield various parameters including IC50.

For assay [1], the system named is NF-kB reporter in Jurkat cells. Briefly: NF-kB reporter assay in Jurkat cells stimulated with aCD3/aCD28/PMA. Format: cell-based. On the procedure:
Jurkat cells were maintained in complete RPMI 1640 media supplemented with 10% FBS. Prior to the assay, 120 nL of the serial diluted compound was added in each well of 384-well flat bottom white plate (Corning #3570) by using liquid handler Echo550. Jurkat cells were harvested by centrifugation at 120 g for 10 min and resuspended in fresh RPMI 1640 media without serum. […] (25,000 cells) were seeded in each well of 384-well plate containing compound. After 1 hr incubation at 37° C. in a 5% CO2 incubator, […] of diluted aCD3/aCD28/PMA (final concentration at […] and […], respectively) in RPMI 1640 without serum were added to each well. After incubation at 37° C. in 5% CO2 for 4 hr, […] of One-Glo reagent (Promega #E6120) was added into each well. The plate was left at room temperature for 5 min and the signal was measured on EnVision (PerkinElmer).
Compounds in which an IC50 was not measured are designated as “N/A”.
(In general: A reporter such as luciferase makes a cellular process visible.)

[2] abbreviates: Homo sapiens; Jurkat cells, 1 hr compound pre-incubation, aCD3/aCD28/PMA stimulation 4 hr, One-Glo readout; read-out: NF-kB Reporter Assay IC50.
[3] abbreviates: Jurkat cells, 1 hr compound pre-incubation, aCD3/aCD28/PMA stimulation 4 hr, One-Glo readout; read-out: NF-kB Reporter Assay IC50.

Read-outs that look alike come from different tables or passages of the source.

Chain of Avi-tagged FL MALT-1 (Q9UDY8 whole entry): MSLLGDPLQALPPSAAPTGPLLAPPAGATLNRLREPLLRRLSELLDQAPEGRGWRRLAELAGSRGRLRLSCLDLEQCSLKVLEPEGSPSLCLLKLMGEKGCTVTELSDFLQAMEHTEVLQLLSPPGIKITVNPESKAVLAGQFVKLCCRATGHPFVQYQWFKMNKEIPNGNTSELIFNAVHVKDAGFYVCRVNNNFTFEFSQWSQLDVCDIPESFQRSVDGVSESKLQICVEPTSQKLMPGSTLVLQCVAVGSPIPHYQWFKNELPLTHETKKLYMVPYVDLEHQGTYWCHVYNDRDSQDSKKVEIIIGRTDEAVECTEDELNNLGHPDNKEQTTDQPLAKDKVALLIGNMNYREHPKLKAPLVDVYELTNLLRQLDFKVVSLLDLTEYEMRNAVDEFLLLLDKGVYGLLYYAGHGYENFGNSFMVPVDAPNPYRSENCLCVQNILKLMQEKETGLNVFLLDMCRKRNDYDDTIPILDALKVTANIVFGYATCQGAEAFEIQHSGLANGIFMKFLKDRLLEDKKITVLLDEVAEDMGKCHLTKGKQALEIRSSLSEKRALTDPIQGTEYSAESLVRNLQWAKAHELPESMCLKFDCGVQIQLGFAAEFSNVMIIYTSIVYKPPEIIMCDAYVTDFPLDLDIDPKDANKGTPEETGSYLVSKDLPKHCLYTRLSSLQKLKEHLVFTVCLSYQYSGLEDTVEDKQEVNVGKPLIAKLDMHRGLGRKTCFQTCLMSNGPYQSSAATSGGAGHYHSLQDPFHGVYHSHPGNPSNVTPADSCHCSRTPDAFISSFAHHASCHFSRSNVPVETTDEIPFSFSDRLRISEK

The IC50 is the concentration that gives 50% inhibition. With `COc1ncc2cnn(C)c2c1NS(=O)(=O)c1cnn(-c2cc(C(C)OC)ccn2)c1` (single isomer, unassigned) [Compound I-272, N-(6-methoxy-1-methyl-1H-pyrazolo[4,3-c]pyridin-7-yl)-1-(4-(1-methoxyethyl)pyridin-2-yl)-1H-pyrazole-4-sulfonamide], the IC50 at Avi-tagged FL MALT-1 was at most 400 nM; in assay [1] (setting [2]), under 400 nM.

For `COc1ncc2cnn(C)c2c1NS(=O)(=O)c1cnn(-c2cc(C(C)OC)ccn2)c1` (single isomer, unassigned) [Compound I-273, N-{6-methoxy-1-methylpyrazolo[4,3-c]pyridin-7-yl}-1-{4-[1-methoxyethyl]pyridin-2-yl}pyrazole-4-sulfonamide], the IC50 against Avi-tagged FL MALT-1 is at most 400 nM; in assay [1] (setting [3]), under 400 nM.

For `CCC(O)c1ccnc(-n2cc(S(=O)(=O)Nc3c(OC)ccc4cnn(C)c34)cn2)c1` (single isomer, unassigned) [Compound I-280, 1-(4-(1-hydroxypropyl)pyridin-2-yl)-N-(6-methoxy-1-methyl-1H-indazol-7-yl)-1H-pyrazole-4-sulfonamide], the 50% inhibitory concentration (IC50) against Avi-tagged FL MALT-1 is 400 to 1000 nM; in assay [1] (read-out: NF-kB Reporter Assay IC50; Jurkat cells, 1 hr compound pre-incubation, aCD3/aCD28/PMA stimulation 4 hr, One-Glo readout), under 400 nM.

For `CCC(O)c1ccnc(-n2cc(S(=O)(=O)Nc3c(OC)ccc4cnn(C)c34)cn2)c1` (single isomer, unassigned) [Compound I-281, 1-(4-(1-hydroxypropyl)pyridin-2-yl)-N-(6-methoxy-1-methyl-1H-indazol-7-yl)-1H-pyrazole-4-sulfonamide], the half-maximal inhibitory concentration (IC50) against Avi-tagged FL MALT-1 was 400 to 1000 nM; in assay [1] (setting [2]), under 400 nM.

As to `COc1ccc2cnn(C)c2c1NS(=O)(=O)c1cnn(-c2cc(C(C)OC)ccn2)c1` (single isomer, unassigned) [Compound I-290, N-(6-methoxy-1-methyl-1H-indazol-7-yl)-1-(4-(1-methoxyethyl)pyridin-2-yl)-1H-pyrazole-4-sulfonamide], the IC50 at Avi-tagged FL MALT-1 was at most 400 nM; in assay [1] (setting [2]), under 400 nM.

In the case of `COc1ccc2cnn(C)c2c1NS(=O)(=O)c1cnn(-c2cc(C(C)OC)ccn2)c1` (single isomer, unassigned) [Compound I-291, N-(6-methoxy-1-methyl-1H-indazol-7-yl)-1-(4-(1-methoxyethyl)pyridin-2-yl)-1H-pyrazole-4-sulfonamide], the IC50 at Avi-tagged FL MALT-1 is at most 400 nM; in assay [1] (setting [3]) it was under 400 nM.

Take `COc1ncc2cnn(C)c2c1NS(=O)(=O)c1cnn(-c2cc(C(C)O)ccn2)c1` (single isomer, unassigned) [Compound I-292, 1-(4-(1-hydroxyethyl)pyridin-2-yl)-N-(6-methoxy-1-methyl-1H-pyrazolo[4,3-c]pyridin-7-yl)-1H-pyrazole-4-sulfonamide]: the 50% inhibitory concentration (IC50) (against Avi-tagged FL MALT-1; in assay [1] (setting [2])) was 400 to 1000 nM each time.

Consider `COc1ncc2cnn(C)c2c1NS(=O)(=O)c1cnn(-c2cc(C(C)O)ccn2)c1` (single isomer, unassigned) [Compound I-293, 1-(4-(1-hydroxyethyl)pyridin-2-yl)-N-(6-methoxy-1-methyl-1H-pyrazolo[4,3-c]pyridin-7-yl)-1H-pyrazole-4-sulfonamide], for which the half-maximal inhibitory concentration (IC50) on Avi-tagged FL MALT-1 was at most 400 nM; in assay [1] (setting [3]), 400 to 1000 nM.

`CCc1ccc2cnn(C)c2c1NS(=O)(=O)c1cnn(-c2ccnc(C(F)(F)F)n2)c1` [Compound I-11, N-(6-Ethyl-1-Methyl-1H-Indazol-7-yl)-1-(2-(Trifluoromethyl) Pyrimidin-4-yl)-1H-Pyrazole-4-Sulfonamide]: the IC50 against Avi-tagged FL MALT-1 lay in the range of 1000 to 2500 nM.

Compound `CCc1ccc2cnn(C)c2c1NS(=O)(=O)c1cnn(-c2cccc(C(F)(F)F)n2)c1` [Compound I-12, N-(6-Ethyl-1-Methyl-1H-Indazol-7-yl)-1-(2-(Trifluoromethyl) Pyridin-2-yl)-1H-Pyrazole-4-Sulfonamide] came in with a half-inhibitory concentration (IC50) on Avi-tagged FL MALT-1 of over 2500 nM.

For the compound `Cn1ncc2cccc(NS(=O)(=O)c3cnn(-c4cccc(C(F)(F)F)n4)c3)c21` [Compound I-13, N-(1-Methyl-1H-Indazol-7-yl)-1-(6-(Trifluoromethyl)Pyridin-2-yl)-1H-Pyrazole-4-Sulfonamide], the IC50 against Avi-tagged FL MALT-1 is over 2500 nM.

(Values after patent US20240150321A1, “PYRAZOLYLSULFONAMIDE COMPOUNDS AND THEIR USE IN THERAPY” (HOTSPOT THERAPEUTICS, INC., priority 2022, published 2024).)
